Measured values: patent publication US6534522B2, “Subtype-selective NMDA receptor ligands and the use thereof” (Warner-Lambert Company, priority 1995, dated 2003)
Structures can show the parent of a compound that is named as a salt. Where two headings read alike, the source gives them in different places.

Assays:
NR1A/2B NMDA receptor = NR1A/2B NMDA receptor (Rattus norvegicus, UniProt P35439+Q00960); test: Xenopus oocyte expression system, two-electrode voltage clamp, NR1A/2B; format: cell-based
Sequence of NR1A/2B NMDA receptor (Q00960 27-1482, other chains not shown): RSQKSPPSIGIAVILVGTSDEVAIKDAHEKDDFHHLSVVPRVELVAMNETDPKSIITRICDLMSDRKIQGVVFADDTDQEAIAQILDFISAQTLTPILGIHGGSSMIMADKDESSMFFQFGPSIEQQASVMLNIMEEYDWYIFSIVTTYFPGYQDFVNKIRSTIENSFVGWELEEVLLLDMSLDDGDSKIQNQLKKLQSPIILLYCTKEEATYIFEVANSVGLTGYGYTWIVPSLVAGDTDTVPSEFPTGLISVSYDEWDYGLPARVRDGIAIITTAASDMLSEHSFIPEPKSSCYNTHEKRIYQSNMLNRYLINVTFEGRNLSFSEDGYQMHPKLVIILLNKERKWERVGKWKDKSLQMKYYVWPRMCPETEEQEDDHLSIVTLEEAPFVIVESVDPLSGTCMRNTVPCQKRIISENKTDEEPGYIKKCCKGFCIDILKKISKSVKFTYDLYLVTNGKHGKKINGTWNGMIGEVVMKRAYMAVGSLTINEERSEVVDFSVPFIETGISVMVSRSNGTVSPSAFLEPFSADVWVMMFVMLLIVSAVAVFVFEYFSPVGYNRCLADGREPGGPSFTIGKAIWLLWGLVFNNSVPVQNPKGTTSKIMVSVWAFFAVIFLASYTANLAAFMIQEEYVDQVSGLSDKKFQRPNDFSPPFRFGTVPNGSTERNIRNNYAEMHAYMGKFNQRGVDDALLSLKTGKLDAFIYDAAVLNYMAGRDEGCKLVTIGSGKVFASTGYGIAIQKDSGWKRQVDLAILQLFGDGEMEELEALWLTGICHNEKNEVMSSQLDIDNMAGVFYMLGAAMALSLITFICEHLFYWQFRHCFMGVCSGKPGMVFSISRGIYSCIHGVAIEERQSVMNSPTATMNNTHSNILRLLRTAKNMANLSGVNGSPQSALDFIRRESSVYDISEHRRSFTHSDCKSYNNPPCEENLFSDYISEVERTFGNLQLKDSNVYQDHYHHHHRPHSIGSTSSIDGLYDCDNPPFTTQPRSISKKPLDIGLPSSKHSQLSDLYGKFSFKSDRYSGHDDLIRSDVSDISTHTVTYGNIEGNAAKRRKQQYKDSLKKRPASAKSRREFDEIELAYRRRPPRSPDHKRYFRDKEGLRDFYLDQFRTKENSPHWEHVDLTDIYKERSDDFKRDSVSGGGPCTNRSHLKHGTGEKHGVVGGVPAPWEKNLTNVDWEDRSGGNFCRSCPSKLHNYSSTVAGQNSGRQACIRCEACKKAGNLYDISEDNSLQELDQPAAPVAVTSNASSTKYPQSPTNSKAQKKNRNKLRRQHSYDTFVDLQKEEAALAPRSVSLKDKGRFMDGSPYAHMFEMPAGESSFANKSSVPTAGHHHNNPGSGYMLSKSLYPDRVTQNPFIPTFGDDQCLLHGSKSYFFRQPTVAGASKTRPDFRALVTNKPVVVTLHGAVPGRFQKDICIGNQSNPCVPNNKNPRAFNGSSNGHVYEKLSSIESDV
Description: (§1) Electrophysiological assays may be utilized to characterize the actions of potential subtype-selective ligands at NMDA receptors expressed in Xenopus oocytes. The ligand may be assayed at the different subunit combinations of cloned rat NMDA receptors corresponding to the four putative NMDA receptor subtypes (Moriyoshi et al., Nature (Lond.) 354:31-37 (1991); Monyer et al., Science (Washington, D.C.) 256:1217-1221 (1992); Kutsuwada et al., Nature (Lond.) 358:36-41 (1992); Sugihara et al., Biochem. Biophys. Res. Comm. 185:826-832 (1992)).
(§2) Using fixed saturating concentrations of agonists (glutamate 100 μM, glycine 1-10 μM depending on subunit combination), the inhibitory potency of a putative subtype-selective ligand may be assayed at the NMDA receptors assembled from NR1A/2A, NR1A/2B, NR1A/2C and NR1A/2D subunit combinations.
(§3) The Xenopus oocyte expression system. Mature female Xenopus laevis were anaesthetized (20-40 min) using 0.15% 3-aminobenzoic acid ethyl ester (MS-222) and 2-4 ovarian lobes were surgically removed. Oocytes at developmental stages IV-VI (Dumont, J. N., J. Morphol. 136:153-180 (1972)), were dissected from the ovary still surrounded by enveloping ovarian tissues. Follicle-enclosed oocytes were micro-injected with 1:1 mixtures of cRNA:NR1A+NR2A, 2B, 2C or 2D; injecting ˜2, 5, or 20 ng of RNA encoding each receptor subunit. NR1A encoding cRNA was injected alone at ˜20 ng. Oocytes were stored in Barth's medium containing (in mM): NaCl, 88; KCl, 1; CaCl2, 0.41; Ca(NO3)2, 0.33; MgSO4, 0.82; NaHCO3, 2.4; HEPES 5; pH 7.4, with 0.1 mg/mL gentamycin sulphate. While oocytes were still surrounded by enveloping ovarian tissues the Barth's medium was supplemented with 0.1% bovine serum. Oocytes were defolliculated 1-2 days following injections by treatment with collagenase (0.5 mg/mL Sigma Type I for 0.5-1 hr) (Miledi and Woodward, J. Physiol. (Lond.) 416:601-621 (1989)) and subsequently stored in serum-free medium.
(§4) Electrical recordings were made using a conventional two-electrode voltage clamp (Dagan TEV-200) over periods ranging between 3-21 days following injection. Oocytes were placed in a 0.1 mL recording chamber continuously perfused (5-15 mL min^−1) with frog Ringer's solution containing (in mM): NaCl, 115; KCl, 2; CaCl2, 1.8; HEPES, 5; pH 7.4. Drugs were applied by bath perfusion. When using the more rapid flow rates, half-times for mid-chamber solution changes were between 2-3 sec, however, exchange rates for drug solutions at the oocyte surface (i.e. beneath the vitelline envelope and among the tangles of microvilli) were probably considerably longer (Woodward et al., Mol. Pharmacol. 41:89-103 (1992)). Zero-Ca^2+/Ba^2+ Ringer had the composition (in mM): NaCl, 115; KCl, 2; BaCl2, 1.8; HEPES, 5; pH 7.4. Intraoocyte injections were made by pneumatic pressure-pulse ejection from micropipettes (Miledi and Parker, J. Physiol. (Lond.) 357:173-183 (1984)). Injection solutions of EGTA (40-400 mM) and BAPTA (50-500 mM) were made up in H2O, pH adjusted to 7.4 with KOH or HCl, and filtered to minimize plugging (Acrodisc-13, […]). Pressure was set between 200-400 kPa. The volume of injections was regulated by adjusting the time of pulses (0.1-1 sec) and was estimated by measuring the diameters of ejected droplets.
(§5) Concentration-inhibition curves were fit with equation 2.
(§6) I/Icontrol=1/(1+([antagonist]/10^−pIC50)^n) Eq. 2
(§7) in which Icontrol is the current evoked by agonists alone, pIC50=−log IC50, […] is the concentration of antagonist that produces half maximal inhibition, and n is the slope factor. For incomplete curves analysis by fitting was unreliable and IC50 values were calculated by simple regression over linear portions of the curves (Origin: Microcal Software).
(§8) Drugs were initially dissolved at concentrations of 10-100 mM in DMSO. Dilutions were then made to generate a series of DMSO stock solutions over the range 10 μM to 100 mM. Working solutions were made by 1000-3000 fold dilution of stocks into Ringer. […]

NR1A/2C NMDA receptor = NR1A/2C NMDA receptor (Rattus norvegicus, UniProt P35439+Q00961); test: Xenopus oocyte expression system, two-electrode voltage clamp, NR1A/2C; format: cell-based
Sequence of NR1A/2C NMDA receptor (Q00961 20-1237, other chains not shown): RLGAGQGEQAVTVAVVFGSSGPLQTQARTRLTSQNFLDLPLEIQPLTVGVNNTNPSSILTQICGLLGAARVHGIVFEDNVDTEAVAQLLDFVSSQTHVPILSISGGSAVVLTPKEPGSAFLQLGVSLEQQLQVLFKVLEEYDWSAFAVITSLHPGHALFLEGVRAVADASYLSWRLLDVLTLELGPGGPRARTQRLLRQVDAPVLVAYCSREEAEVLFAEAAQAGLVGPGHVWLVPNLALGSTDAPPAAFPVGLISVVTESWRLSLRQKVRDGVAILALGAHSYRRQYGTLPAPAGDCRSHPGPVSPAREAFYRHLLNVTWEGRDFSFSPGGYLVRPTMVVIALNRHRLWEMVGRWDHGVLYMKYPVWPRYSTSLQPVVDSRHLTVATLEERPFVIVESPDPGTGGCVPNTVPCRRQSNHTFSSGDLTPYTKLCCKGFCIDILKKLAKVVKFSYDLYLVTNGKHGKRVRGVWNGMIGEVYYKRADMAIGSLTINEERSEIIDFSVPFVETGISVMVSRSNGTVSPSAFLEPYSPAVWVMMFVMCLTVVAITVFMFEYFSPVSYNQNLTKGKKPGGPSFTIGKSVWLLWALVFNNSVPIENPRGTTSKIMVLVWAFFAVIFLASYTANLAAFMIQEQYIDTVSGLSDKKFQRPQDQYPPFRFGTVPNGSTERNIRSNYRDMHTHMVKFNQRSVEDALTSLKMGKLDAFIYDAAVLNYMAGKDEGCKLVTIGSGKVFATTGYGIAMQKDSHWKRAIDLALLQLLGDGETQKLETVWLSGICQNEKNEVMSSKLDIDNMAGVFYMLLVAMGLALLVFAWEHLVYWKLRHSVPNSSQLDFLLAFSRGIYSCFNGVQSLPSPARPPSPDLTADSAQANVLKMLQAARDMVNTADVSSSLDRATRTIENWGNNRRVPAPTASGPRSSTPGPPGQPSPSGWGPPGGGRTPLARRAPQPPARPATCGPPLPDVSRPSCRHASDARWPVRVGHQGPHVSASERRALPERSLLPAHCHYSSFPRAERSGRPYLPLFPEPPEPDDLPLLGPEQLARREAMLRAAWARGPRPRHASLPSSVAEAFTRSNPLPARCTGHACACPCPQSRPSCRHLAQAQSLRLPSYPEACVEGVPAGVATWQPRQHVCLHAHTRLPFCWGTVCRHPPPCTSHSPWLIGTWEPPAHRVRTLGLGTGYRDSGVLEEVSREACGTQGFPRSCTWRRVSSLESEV
Description: as §1, §2, §3, §4, §5, §6, §7, §8

NR1A/2A NMDA receptor = NR1A/2A NMDA receptor (Rattus norvegicus, UniProt P35439+Q00959); test: Xenopus oocyte expression system, two-electrode voltage clamp, NR1A/2A; format: cell-based
Sequence of NR1A/2A NMDA receptor (Q00959 20-1464 limits assumed, other chains not shown): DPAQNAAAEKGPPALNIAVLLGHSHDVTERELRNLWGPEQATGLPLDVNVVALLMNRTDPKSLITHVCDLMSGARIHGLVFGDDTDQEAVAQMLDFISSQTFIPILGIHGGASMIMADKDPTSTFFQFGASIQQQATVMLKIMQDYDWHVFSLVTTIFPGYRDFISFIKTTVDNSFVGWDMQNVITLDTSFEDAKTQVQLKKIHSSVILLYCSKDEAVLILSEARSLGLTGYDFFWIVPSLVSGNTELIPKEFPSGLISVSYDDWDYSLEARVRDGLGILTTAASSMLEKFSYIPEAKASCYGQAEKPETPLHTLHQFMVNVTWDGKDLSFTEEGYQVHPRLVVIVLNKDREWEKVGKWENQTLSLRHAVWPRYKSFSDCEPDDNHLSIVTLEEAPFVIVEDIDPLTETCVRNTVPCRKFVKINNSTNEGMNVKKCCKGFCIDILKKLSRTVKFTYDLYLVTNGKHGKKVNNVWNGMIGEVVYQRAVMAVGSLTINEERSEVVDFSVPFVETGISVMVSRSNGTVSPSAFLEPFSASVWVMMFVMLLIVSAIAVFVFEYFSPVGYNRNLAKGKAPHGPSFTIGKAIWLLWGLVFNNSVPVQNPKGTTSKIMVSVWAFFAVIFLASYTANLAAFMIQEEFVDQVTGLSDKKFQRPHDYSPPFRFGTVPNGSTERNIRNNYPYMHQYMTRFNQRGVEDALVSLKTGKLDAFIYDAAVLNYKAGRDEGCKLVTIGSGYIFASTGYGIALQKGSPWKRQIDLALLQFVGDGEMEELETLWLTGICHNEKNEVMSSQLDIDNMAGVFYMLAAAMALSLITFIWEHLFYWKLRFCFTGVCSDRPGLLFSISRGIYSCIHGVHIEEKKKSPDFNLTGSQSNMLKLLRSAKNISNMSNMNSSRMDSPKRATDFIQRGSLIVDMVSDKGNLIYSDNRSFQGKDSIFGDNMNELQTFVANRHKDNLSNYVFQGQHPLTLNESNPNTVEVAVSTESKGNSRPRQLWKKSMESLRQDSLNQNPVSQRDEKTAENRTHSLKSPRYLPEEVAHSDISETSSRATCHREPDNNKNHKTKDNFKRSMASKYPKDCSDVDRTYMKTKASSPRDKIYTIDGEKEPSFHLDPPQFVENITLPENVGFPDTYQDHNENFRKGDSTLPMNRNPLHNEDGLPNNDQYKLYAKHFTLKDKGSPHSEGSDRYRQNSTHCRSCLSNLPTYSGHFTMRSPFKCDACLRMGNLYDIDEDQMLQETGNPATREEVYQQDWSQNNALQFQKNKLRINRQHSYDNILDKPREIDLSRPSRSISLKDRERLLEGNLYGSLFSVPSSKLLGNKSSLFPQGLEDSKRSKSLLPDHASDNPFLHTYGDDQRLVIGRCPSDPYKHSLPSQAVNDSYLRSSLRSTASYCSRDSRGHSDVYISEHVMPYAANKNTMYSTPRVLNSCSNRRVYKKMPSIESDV
Description: as §1, §2, §3, §4, §5, §6, §7, §8

[1] = cloned NR1A/2B subunits expressed in Xenopus oocytes, inhibition of agonist-evoked membrane current, read-out: 1A/2B IC50
[2] = cloned NR1A/2C subunits expressed in Xenopus oocytes, inhibition of agonist-evoked membrane current, read-out: 1A/2C IC50
[3] = cloned NR1A/2A subunits expressed in Xenopus oocytes, inhibition of agonist-evoked membrane current, read-out: 1A/2A IC50

Molecule | melting point [°C] | IC50 (NR1A/2B NMDA receptor; [1]) [µM] | IC50 (NR1A/2C NMDA receptor; [2]) [µM] | IC50 (NR1A/2A NMDA receptor; [3]) [µM] | IC50 (NR1A/2B NMDA receptor) [µM] | IC50 (NR1A/2C NMDA receptor) [µM] | IC50 (NR1A/2A NMDA receptor) [µM]
Br.c1ccc(CC2CCCN(CCOc3ccccc3)C2)cc1 (stereo not shown) | 93 to 94 | – | – | – | – | – | –
Br.c1ccc(CCCCN2CCCC(Cc3ccccc3)C2)cc1 (stereo not shown) | 105 to 107 | – | – | – | – | – | –
Br.c1ccc(CCN2CCCC(Cc3ccccc3)C2)cc1 (stereo not shown) | 137 to 142 | – | – | – | – | – | –
Br.FC(F)(F)c1cccc(CCN2CCCC(Cc3ccccc3)C2)c1 (stereo not shown) | 152 to 154 | – | – | – | – | – | –
Br.Clc1ccc(CCN2CCCC(Cc3ccccc3)C2)cc1 (stereo not shown) | 143 to 145 | – | – | – | – | – | –
Br.COc1ccc(CCN2CCCC(Cc3ccccc3)C2)cc1 (stereo not shown) | 74 to 78 | – | – | – | – | – | –
Cl.O=C(c1ccc(F)cc1)C1CCN(CCOc2ccc(F)cc2)CC1 | 138 to 141 | – | – | – | – | – | –
1-(2-Phenylethyl)-4-benzylidenepiperidine [Ex. 15] | – | 5.5 | 230 | 60 | – | – | –
CCCCCCN1CCC(Cc2ccccc2)CC1 [(A), 4-benzyl-1-hexylpiperidine] | – | 5 | > 300 | > 300 | – | – | –
CCCCN1CCC(Cc2ccccc2)CC1 [(B), 4-benzyl-1-butylpiperidine] | – | 25 | > 300 | > 300 | – | – | –
O=C(c1cccc(F)c1)C1CCN(CCCCc2ccccc2)CC1 [(C), 4-(3′-fluorobenzoyl)-1-(4″-phenylbutyl)piperidine] | – | 10 | > 300 | > 300 | – | – | –
NC(=O)CCCCN1CCC(Cc2ccccc2)CC1 [Ex. 2, 4-Benzylpiperidylpentamide] | – | 1.6 | > 300 | > 300 | – | – | –
NNC(=O)CCCCN1CCC(Cc2ccccc2)CC1 [Ex. 3, 4-Benzylpiperidylpentahydrazide] | – | 4 | > 300 | > 300 | – | – | –
C#CCCN1CCC(Cc2ccccc2)CC1 [Ex. 6, 4-benzyl-1-(3-Butynyl)piperidine] | – | 2.3 | > 300 | > 300 | – | – | –
C#CCCN1CCC(O)(c2ccc(Cl)cc2)CC1 [Ex. 7, 1-(3-Butynyl)-4-(p-chlorphenyl)-4-hydroxypiperidine] | – | 65 | > 300 | > 300 | – | – | –
O=C(CCCN1CCC(O)CC1)c1ccccc1 [Ex. 13, 4-(4-Hydroxypiperidinyl) butyrophenone] | – | 53 | 140 | 80 | – | – | –
COC(=O)CCCCN1CCCC(Cc2ccccc2)C1 (stereo not shown) [Ex. 34, 5-(3-Benzylpiperidinyl)valeric acid methyl ester] | – | 240 | > 300 | > 300 | – | – | –
CCOC(=O)CCCN1CCCC(Cc2ccccc2)C1 (stereo not shown) [Ex. 35, 4-(3-Benzylpiperidinyl)butyric acid ethyl ester] | – | 150 | > 300 | > 300 | – | – | –
C=CCN1CCCCC1Cc1ccccc1 (stereo not shown) [Ex. 38(A), 1-Allyl-2-benzylpiperidine, hydrobromide] | – | – | – | – | 72 | 65 | 25
C=CC[N+]1(CC=C)CCCCC1Cc1ccccc1 (stereo not shown) [Ex. 38(B), 2-benzyl-l,1-diallylpiperidinium iodide] | – | 50 | 50 | 28 | – | – | –
CCOC(=O)CCCN1CCC(Cc2ccccc2)CC1 [Ex. 41, 4-(4-Benzylpiperidinyl) butyric acid ethyl ester hydrobromide salt] | – | > 300 | > 300 | > 300 | – | – | –
OCC1CC2CC(Cc3ccccc3)CCN2C1 (stereo not shown) [Ex. 88, 7-Benzyl-1,2,3,5,6,7,8,9-octahydro-2-(hydroxymethyl)indolizine] | – | 5 | > 300 | > 300 | – | – | –

Further lines, with some results ahead:

melting point [°C] | IC50 (NR1A/2B NMDA receptor; [1]) [µM] | IC50 (NR1A/2C NMDA receptor; [2]) [µM] | IC50 (NR1A/2A NMDA receptor; [3]) [µM] | Molecule | IC50 (NR1A/2B NMDA receptor) [µM] | IC50 (NR1A/2C NMDA receptor) [µM] | IC50 (NR1A/2A NMDA receptor) [µM]
– | 65 | > 300 | > 300 | Fc1cccc(C[P+](c2ccccc2)(c2ccccc2)c2ccccc2)c1 [Ex. 8, m-Fluorobenzyltriphenylphosphonium bromide] | – | – | –
– | 14 | > 300 | 240 | Fc1cccc(C=C2CCN(Cc3ccccc3)CC2)c1 [Ex. 9, 1-Benzyl-4-(m-fluorobenzylidene)piperidine] | – | – | –
– | 17 | 80 | 20 | OC1(Cc2ccccc2)CCN(CCCc2ccccc2)CC1 [Ex. 16, 4-Benzyl-4-hydroxy-1-(3-phenylpropyl)piperidine] | – | – | –
– | 35 | > 100 | 140 | c1ccc(OCCN2CCc3ccccc3C2)cc1 [Ex. 18, N-(2-Phenoxyethyl)-1,2,3,4-tetrahydroisoquinoline] | – | – | –
– | 10 | 275 | 75 | c1ccc(OCCCN2CCc3ccccc3C2)cc1 [Ex. 19, N-(3-Phenoxypropyl)-1,2,3,4-tetrahydroisoquinoline] | – | – | –
– | 50 | > 300 | > 300 | O=C(c1ccccc1)C1CCN(CCOc2ccccc2)CC1 [Ex. 27, 4-Benzoyl-1-(2-phenoxyethyl)piperidine] | – | – | –
– | 8 | > 100 | 95 | O=C(Nc1ccc([N+](=O)[O-])cc1)N1CCC(Cc2ccccc2)CC1 [Ex. 30, 1-[2-aza-1-oxo-2-(4-nitrophenyl)ethyl]-4-benzylpiperidine] | – | – | –
– | 40 | > 300 | 270 | NCCCN1CCC(Cc2ccccc2)CC1 [Ex. 47, 4-Benzyl-1-(3-aminopropyl) piperidine] | – | – | –
– | 12 | > 300 | > 300 | OCCCCN1CCC(Cc2ccccc2)CC1 [Ex. 86, 4-Benzyl-1-(4-hydroxybutyl)piperidine hydrobromide] | – | – | –
– | 7 | > 300 | > 300 | OCCCN1CCC(O)(Cc2ccccc2)CC1 [Ex. 87, 4-Benzyl-4-hydroxy-1-(3-hydroxypropyl)piperidine] | – | – | –
– | 1.3 | > 300 | > 300 | OCCCN1CCC(Cc2ccc(F)cc2)CC1 [Ex. 90, 4-(4-Fluorobenzyl)-1-(3-hydroxypropyl) piperidine hydrobromide] | – | – | –
– | 8 | > 300 | > 300 | C[C@@H](CO)CN1CCC(Cc2ccc(F)cc2)CC1 [Ex. 92, (R)-4-(4-Fluorobenzyl)-1-(3-hydroxy-2-methylpropyl) piperidine hydrochloride] | – | – | –
– | 17 | > 300 | 120 | CC(O)CCN1CCC(Cc2ccc(N)cc2)CC1 (stereo not shown) [Ex. 105, 4-(4-aminobenzyl)-1-(3-hydroxy-butyl) piperidine hydrochloride] | – | – | –
– | 7.5 | > 300 | 24 | O=c1[nH]c2ccc(OCCCN3CCc4ccccc4C3)cc2[nH]1 [Ex. 108, N-(3-(2-oxobenzimidazol-5-oxy)propyl)-1,2,3,4-tetrahydroisoquinoline] | – | – | –
– | 140 | > 300 | 190 | O=c1[nH]c2ccc(OCCN3CCc4ccccc4C3)cc2[nH]1 [Ex. 109, N-(2-(2-oxobenzimidazol-5-oxy)ethyl)-1,2,3,4-tetrahydroisoquinoline] | – | – | –
